The text below walks through data of PMC12609579, “Acute Myeloid Leukemia: A Key Role of DGKα and DGKζ in Cell Viability” (Cells, 2025).

In one data set the test system is HEL cells. Further details: method as in PMID 37509516. The following applies: cited from earlier work; for IC50: 24 h, read-out: IC50 (cytotoxicity).
The subject of a further data set is HL-60 cells. More on the design: method as in PMID 37509516. The following applies: cited from earlier work; for effect on viability: HL-60; for IC50: HL-60, 24 h, read-out: IC50 (cytotoxicity).
Data set [1] concerns AML cell lines (HL-60, HEL, THP-1, K562). In words: alamarBlue cell viability assay, AML cell line panel (serotonin receptor inhibitors). To be noted: 24 h; for effects on AML cell viability: increasing concentrations. Type of data set: cell-based, human. As to the method: The alamarBlue assay was performed to assess cell viability in presence of chemical inhibitors. A total of 50,000 cells per well were seeded in a 96-wells plate in a volume of 100 μL of complete medium together with 10 μL of 10× concentrated inhibitor solution and then incubated for either 24 or 72 h. Each experimental condition was performed in technical quadruplicates, using cells treated with equal amounts of DMSO vehicle as control and medium alone as background. After incubation, alamarBlue was added to each well at a final concentration of 0.15 mg/mL. The fluorescence of the samples was measured 24 h later using a Spark 10 M Multimode Plate Reader (Tecan, Switzerland) with excitation and emission wavelengths of 535 nm and 590 nm, respectively. For dose–response curve fitting, fluorescence values were normalized according to the following formula:Viability (%) = [(sample mean fluorescence)/(DMSO control mean fluorescence)] ∗ 100 […]
Supplementary figure S3: Effects of serotonin receptor inhibitors on AML cell lines viability.
AML cells were treated with increasing concentration of the indicated inhibitor for 24 hours followed by alamarBlue viability assay for additional 24 hours. Experiments were run in quadruplicates. Data are the mean ± SEM of 4 or more experiments interpolated as [inhibitor] vs. % viability. […]
For orientation: Alamar Blue is a resazurin reagent that responds to reducing activity.

In data set [2] the target is serotonin 5-HT2A receptor. The following applies: cited from earlier work.

The IC50 is the point on the concentration scale where inhibition reaches its midpoint. One may read the Ki as the dissociation constant of the complex between target and ligand, obtained from inhibition or displacement.

On to `Cc1ccc2c(C(=O)CN3CCN(C(=O)c4ccco4)CC3)c(C)[nH]c2c1` [AMB639752], for which the effect on viability entry with HEL cells and in the data set with HL-60 cells was “did not significantly affect viability” throughout. For the compound `O=C1/C(=C/C=C/c2ccco2)SC(=S)N1NS(=O)(=O)c1ccccc1` [CU-3], the effect on viability result in the data set with HEL cells and in the data set on HL-60 cells was “did not significantly affect viability” throughout. Consider `Cc1nc2sccn2c(=O)c1CCN1CCC(=C(c2ccccc2)c2ccc(F)cc2)CC1` [R59022], for which the 50% inhibitory concentration (IC50) in the data set on HEL cells is 49 µM; with HL-60 cells, 32 µM. In the case of `O=c1c2ccccc2[nH]c(=S)n1CCN1CCC(=C(c2ccc(F)cc2)c2ccc(F)cc2)CC1` [R59949], the values for the IC50 with HEL cells and with HL-60 cells were 80 µM and 72 µM, respectively.

On to `O=C(c1ccc(F)cc1)C1CCN(CCn2c(=S)[nH]c3ccccc3c2=O)CC1` [altanserin], for which the “effects on AML cell viability” value in data set [1] was “negligible effects”. Besides, the inhibitory constant (Ki) in data set [2] was 0.00013 µM.

Regarding `CCN(CC)CCNC(=O)c1cc(Cl)c(N)cc1OC` [metoclopramide], the “highest reduction in viability” value in data set [1] (100 μM) was 11%. In addition, in data set [1], the “effects on AML cell viability” value is given as “negligible effects”. As to `Cc1nc2n(c(=O)c1CCN1CCC(c3noc4cc(F)ccc34)CC1)CCCC2` [risperidone], the “effects on AML cell viability” value in data set [1] is given as “negligible effects”.
